Measurements reported in publication PMC11883425, “The synthesis and investigation of novel 3-benzoylbenzofurans and pyrazole derivatives for anti-HIV activity” (RSC Medicinal Chemistry, 2025).
Where two headings read alike, the source gives them in different places.

Assays:
HIV-1 Q23 pseudovirus = experiment: HIV-1 whole virus inhibition assay, Q23 pseudovirus (luciferase, TZM-bl cells); format: cell-based
Protocol: (§1) The HIV pseudoviruses were produced from the plasmids that were kindly donated by Dr Mthunzi-Kufa (CSIR, South Africa). Competent DH5α cells and STBL2 cells were transformed with envelope (CAP210.2.00.E8 and Q23.17) and backbone plasmid (HIV-1 SG3 ΔEnv) through heat-shock at 42 °C for 90 seconds and cooled in ice for 5 minutes. The transformed cells were grown in Luria Bertani medium containing 100 μg mL^−1 ampicillin and glycerol stocks were prepared. The transformed cells were grown at 37 °C in a 200 rpm shaking incubator overnight and the plasmids were isolated from the cells using a GeneJET plasmid Miniprep Kit (ThermoFisher Scientific Inc). The purity of the isolated plasmids was assessed for purity using Nanodrop. The HEK 293T cells were co-transfected with the backbone (10 μg) and envelope plasmids (5 μg) using the PolyFect Transfection Reagent (QIAGEN N.V) for 8–12 hours and the transfected cells were grown for 48 hours producing pseudoviruses which were collected, and stocks stored at −80 °C.
(§2) The compounds were serial diluted from 100 to1.56 μM in 96 well plates (Separation Scientific SA (Pty) Ltd) and incubated with either CAP210 or Q23 pseudoviruses (200 TCID50) and incubated for 1 hour. The TZM-bl cells (1 × 10^5 cells per mL containing 7.5 μg mL^−1 DEAE-dextran) were added and incubated for 48 hours. The 96 well plates were centrifuged, and the supernatant was removed leaving only 50 μL in each well. The Bright-Glo™ Luciferase substrate (Anatech Instruments (Pty) Ltd) (50 μL) was added to each well and incubated for 2 minutes in the dark and chemiluminescence readings were taken in a Corning® 96-well white polystyrene plate using a SpectraMax® Paradigm® Multi-Mode Microplate Reader.

HIV-1 CAP210 pseudovirus = experiment: HIV-1 whole virus inhibition assay, CAP210 pseudovirus (luciferase, TZM-bl cells); format: cell-based
Protocol: as §1, §2

CAP210 pseudovirus = experiment: Time of drug addition assay, CAP210 pseudovirus in TZM-bl cells; format: cell-based, HIV-1; conditions: 3 μM, added 0, 2, 4, 6, 8 hours post-infection
Protocol: Fig. 5 Time of addition assay of CAP210 HIV infection treated with active compounds. TZM-bl cells were infected with CAP210 pseudoviruses and treated with compounds at various hours post-infection. NVP, 3g, and 4b were used at 3 μM, while 5f and 5h were used at 25 μM. The bars represent the mean ± SEM obtained from three independent experiments.
TZM-bl cells (1 × 10^5 cells per mL containing 7.5 μg mL^−1 DEAE-dextran) were infected with CAP210 pseudovirus at 400 TCID50 and incubated at 37 °C for 48 hours. The compounds were added to the wells at various time points (0, 2, 4, 6, and 8 hours) post-infection. […] After 48 hours, the cells were centrifuged at 1200 × g for 5 minutes, culture media was removed, leaving 50 μL, and Bright-Glo substrate (50 μL) was added to detect luciferase activity for 2 minutes at 37 °C. Inhibition of HIV pseudoviruses by active compounds was detected by reading for chemiluminescence using a Corning® 96-well white polystyrene using the SpectraMax® Paradigm® Multi-Mode Microplate Reader.

various HIV-1 subtypes = conditions: literature reports; read-out: IC50 against various HIV-1 subtypes; cited from earlier work
[1] = system: HIV-1 subtype C pseudoviruses; conditions: cited from earlier work

In the case of `Cc1ccnc2c1NC(=O)c1cccnc1N2C1CC1` [NVP, nevirapine, reference compound], the IC50 (HIV-1 Q23 pseudovirus; TZM-bl, 48 h, read-out: IC50 (μM) Q23, Q23 pseudovirus, TZM-bl cells, 48 hours) is reported as less than 0.11 µM, the “inhibition of Q23 infection” value (HIV-1 Q23 pseudovirus; all tested concentrations) is reported as 99% and the IC50 (HIV-1 Q23 pseudovirus; read-out: IC50 (μM) Q23, Q23 pseudovirus, TZM-bl cells, 48 hours) is reported as 0.11 ± 0.004 µM. For the same compound, the IC50 (HIV-1 CAP210 pseudovirus; TZM-bl, 48 h, read-out: IC50 (μM) CAP210, CAP210 pseudovirus, TZM-bl cells, 48 hours) was 0.1 ± 0.002 µM, the “inhibition of CAP210 infection” value (HIV-1 CAP210 pseudovirus; all tested concentrations) was 99% and the “inhibition of HIV infection by time of addition” value (CAP210 pseudovirus) was “inhibit HIV infections for up to 8 hours”. For the same compound, the IC50 (various HIV-1 subtypes) was roughly 30 nM and the IC50 [1] was 30 nM.
